One compound from US20230404995A1, “COMPOSITIONS AND METHODS FOR TREATING PULMONARY FIBROSIS” (priority 2020, published 2023) can be followed below.

As a reminder, the cell viability is the share of living cells, or the viability signal relative to a control.

Series [1] has as its system WI-38 lung fibroblasts. As to the kind of experiment: TGF-β induced collagen production in WI-38 lung fibroblasts (immunofluorescent imaging). Format: cell-based. The settings on record: serum starved WI-38, TGF-β 5 ng/ml, 48 hours, quinacrine 2.5 μM; FIG. 2D. How it is done: It is well established that during fibrotic diseases, fibroblasts and epithelial cells are transformed in myofibroblasts (mesenchymal cells), which secrete excess amount of extracellular matrix (ECM), one of the major components being interstitial collagen at the site of tissue injury. Serum starved WI-38 lung fibroblasts were activated with TGF-β (5 ng/ml; 48 hours), and QA's efficacy's in inhibiting collagen production due to transition of fibroblasts in collagen-secreting fibroblasts was tested.

The subject of series [2] is WI-38 lung fibroblasts. The experiment in a line: Growth factor induced hyper-proliferation of WI-38 lung fibroblasts.
Series [3] concerns A549 alveolar epithelial cells. As to the kind of experiment: TGF-β induced epithelial-mesenchymal transition (EMT) in A549 cells: morphology and E-cadherin expression.
In a further series the test system is HBE cells. As to the kind of experiment: TGF-β induced epithelial-mesenchymal transition (EMT) in HBE cells, cell imaging. To be noted: TGF-β 10 ng/mL, QA 0.5, 1, 2.5 and 5 μM tested, 24 and 48 hours, FIG. 4. Format: cell-based, human. The method, then: For TGF-β induced epithelial mesenchymal transition (EMT) images, HBE cells (50,000 cells/well) were seeded in a 6-well culture plate. Next day, all treatments (except the medium control) were starved with replacement of growth factor-absent media. After 24 hours incubation, the QA treatments were administered: 0.5, 1, 2.5, and 5 μM. Each treatment also included 10 ng/mL of TGF-β. The remaining 2 wells were treated with regular media and TGF-β as the negative control and positive control, respectively. Individual images of the cells were taken with an EVOS-FL Cell imaging fluorescence microscope (Thermo Fisher Scientific, Waltham, MA, USA) after 24 and 48 hours.
EMT is presented by morphological changes following TGF-beta treatment, and subsequent reversal with QA treatment.

In series [4] the test system is primary human bronchial epithelial (HBE) cells. As to the kind of experiment: Cell viability of HBE cells (Cell Titer Blue cell viability kit). It counts as cell-based. The settings on record: QA 0.039-10 μM, 24 hours, FIG. 3. The method, then: A cell viability study was carried out on HBE cells using Cell Titer Blue cell viability kit. Briefly, cells were treated with varying concentrations of QA (0.039-10 μM), for 24 hours, and media was used as a control. Fluorescence readings were taken at 540/590 nm using a Spark 10M Plate Reader (Tecan, Switzerland).
On the technique in general: The colour change of resazurin is a common sign of viable cells or microbes.

On to `CCN(CC)CCCC(C)Nc1c2ccc(Cl)cc2nc2ccc(OC)cc12` (stereo not shown) [QA, quinacrine], for which the collagen expression result with WI-38 lung fibroblasts [1] is given as “significantly reduced”. Further, the FGF induced hyper-proliferation entry in the series on WI-38 lung fibroblasts [2] (WI-38, FGF 10 ng/ml, 72 hours, FIG. 2C) was “dose-dependent reduction”. Moreover, the PDGF-BB induced hyper-proliferation result in the series on WI-38 lung fibroblasts [2] (WI-38, PDGF-BB 10 ng/ml, 72 hours, FIG. 2B) was “dose-dependent reduction”. The “fibroblast proliferation in the presence of TGF-β” value in the series on WI-38 lung fibroblasts [2] (WI-38, TGF-β 10 ng/ml, 48 hours, FIG. 2A) is “dose-dependent reduction”. The “viability (cytotoxicity of the QA doses used)” value with WI-38 lung fibroblasts [2] (WI-38 lung fibroblasts, all doses of QA used in the proliferation study) is reported as above 90%. Also, the “E-cadherin expression, western blot (compared to β-actin)” value in series [3] (A549 cells co-incubated with QA 2.5 μM and TGF-β 5 ng/ml, TGF-β alone gave 40% reduction, FIGS. 1C-D) is on record as “completely restored”. For the same compound, in series [3] (A549 cells, TGF-β 5 ng/ml, 48 h, simultaneous QA 2.5 μM, FIG. 1B), the “E-cadherin expression, immunofluorescence” value is “restored”. In addition, the “cell morphology, protection against TGF-β induced EMT” value in series [3] (serum starved A549 cells, TGF-β 5 ng/ml with simultaneous QA 2.5 μM, FIG. 1A) is on record as “reversing fibroblastic morphology induced by TGF-β treatment”. In addition, in the series on HBE cells, the “lowest concentrations that effectively inhibited TGF-beta induced EMT (morphological changes)” value was 0.5-1 μM. Besides, the cell viability in series [4] is above 85%.
